# Values joined by “and” are separate entries in the source; they are usually repeats but may differ in a detail not shown here. Equal entries are not always repeated. Toxic doses and inconclusive results are not listed.
# Tested on: BDF1 mice, B16 melanoma ip, median survival T/C
# Assay: NCI In Vivo Anticancer Drug Screen. Data for tumor model B16 Melanoma (intraperitoneal) in B6D2F1 (BDF1) mice
# Settings: endpoint: median survival time, higher = longer survival
# In short: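 Transplantable tumor model; survival or tumor size measured; reported as T/C, treated over vehicle control.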
# [1] = dose: 100.0 mg/kg/injection, schedule: Q01DX009 (ip), vehicle: Klucel (hydroxypropylcellulose) (HPC)
# [2] = dose: 200.0 mg/kg/injection, schedule: Q01DX009 (ip), vehicle: Klucel (hydroxypropylcellulose) (HPC)
# [3] = dose: 400.0 mg/kg/injection, schedule: Q01DX009 (ip), vehicle: Klucel (hydroxypropylcellulose) (HPC)
# [4] = dose: 12.5 mg/kg/injection, schedule: Q01DX009 (ip), vehicle: saline
# [5] = dose: 25.0 mg/kg/injection, schedule: Q01DX009 (ip), vehicle: saline
# [6] = dose: 50.0 mg/kg/injection, schedule: Q01DX009 (ip), vehicle: saline
# [7] = dose: 25.0 mg/kg/injection, schedule: Q01DX009 (ip), vehicle: saline with Tween-80
# [8] = dose: 50.0 mg/kg/injection, schedule: Q01DX009 (ip), vehicle: saline with Tween-80
# [9] = dose: 100.0 mg/kg/injection, schedule: Q01DX009 (ip), vehicle: saline with Tween-80
# [10] = dose: 200.0 mg/kg/injection, schedule: Q01DX009 (ip), vehicle: saline with Tween-80
# [11] = dose: 12.5 mg/kg/injection, schedule: Q01DX009 (ip), vehicle: Klucel (hydroxypropylcellulose) (HPC)
# [12] = dose: 25.0 mg/kg/injection, schedule: Q01DX009 (ip), vehicle: Klucel (hydroxypropylcellulose) (HPC)
# [13] = dose: 50.0 mg/kg/injection, schedule: Q01DX009 (ip), vehicle: Klucel (hydroxypropylcellulose) (HPC)
# [14] = dose: 6.25 mg/kg/injection, schedule: Q01DX009 (ip), vehicle: saline with Tween-80
# [15] = dose: 12.5 mg/kg/injection, schedule: Q01DX009 (ip), vehicle: saline with Tween-80
smiles,measurement,setting,value
COc1cccc2c1C(=O)c1c(O)c3c(c(O)c1C2=O)C[C@@](O)(C(C)O)C[C@@H]3OC1CC(N2CCOCC2C#N)C(O)C(C)O1 (stereo partly drawn),T/C,"dose: 4.69 micrograms/kg/injection, schedule: Q01DX001 (ip), vehicle: water",110 % of control
same,T/C,"dose: 9.37 micrograms/kg/injection, schedule: Q01DX001 (ip), vehicle: water",115 % of control
same,T/C,"dose: 37.5 micrograms/kg/injection, schedule: Q01DX001 (ip), vehicle: water",124 % of control
O=C(O)c1ccc2c(c1)C(=O)c1ccccc1S2(=O)=O,T/C,[1],92 % of control
same,T/C,[2],93 % of control
N#CC(Cc1ccccc1Cl)(Cc1ccccc1Cl)c1ccccc1,T/C,[1],100 % of control
same,T/C,[2],105 % of control
same,T/C,[3],105 % of control
CN(C)CC/C=C1/c2ccccc2COc2ccccc21,T/C,"dose: 3.12 mg/kg/injection, schedule: Q01DX009 (ip), vehicle: saline",112 % of control
same,T/C,"dose: 6.25 mg/kg/injection, schedule: Q01DX009 (ip), vehicle: saline",102 % of control
same,T/C,[4],105 % of control
same,T/C,[5],112 % of control
same,T/C,[6],105 % of control
CC(C)N(CCCC#N)C(C)C,T/C,[7],91 % of control
same,T/C,[8],102 % of control
same,T/C,[9],100 % of control
CC(=O)N\C(N)=N/N=C\C(C)=N/N=C(\N)NC(C)=O,T/C,[8],108 % of control
same,T/C,[9],99 % of control
same,T/C,[10],94 % of control
Cc1c2cc3c(c1O)C(=O)CC(O3)c1ccc(O)c(c1)-c1cccc(c1O)C(=O)OCC1OC(O2)C(O)C(O)C1O (stereo not drawn),T/C,"dose: 0.13 mg/kg/injection, schedule: Q01DX009 (ip), vehicle: Klucel (hydroxypropylcellulose) (HPC)",93 % of control
same,T/C,"dose: 0.25 mg/kg/injection, schedule: Q01DX009 (ip), vehicle: Klucel (hydroxypropylcellulose) (HPC)",95 % of control
same,T/C,"dose: 0.5 mg/kg/injection, schedule: Q01DX009 (ip), vehicle: Klucel (hydroxypropylcellulose) (HPC)",89 % of control
same,T/C,"dose: 1.0 mg/kg/injection, schedule: Q01DX009 (ip), vehicle: Klucel (hydroxypropylcellulose) (HPC)",88 % of control
CC(c1c[nH]c2ccccc12)N1CCCCC1 (stereo not drawn),T/C,[11],97 % of control
same,T/C,[12],95 % of control
same,T/C,[13],98 % of control
CCOC(=O)NO,T/C,"dose: 75.0 mg/kg/injection, schedule: Q01DX009 (ip), vehicle: saline",100 % of control
same,T/C,"dose: 150.0 mg/kg/injection, schedule: Q01DX009 (ip), vehicle: saline",105 % of control
same,T/C,"dose: 300.0 mg/kg/injection, schedule: Q01DX009 (ip), vehicle: saline",103 % of control
O=C(O)c1cccc(S(=O)(=O)N(CCO)CCO)c1,T/C,[4],95 % of control
same,T/C,[5],97 % of control
same,T/C,[8],91 % of control
same,T/C,[6],92 % of control
Cc1nc(C(=O)O)c(C)c(=O)[nH]1,T/C,"dose: 1.56 mg/kg/injection, schedule: Q01DX009 (ip), vehicle: water",100 % of control
same,T/C,"dose: 3.13 mg/kg/injection, schedule: Q01DX009 (ip), vehicle: water",96 % of control
same,T/C,"dose: 6.25 mg/kg/injection, schedule: Q01DX009 (ip), vehicle: water",105 % of control
same,T/C,"dose: 12.5 mg/kg/injection, schedule: Q01DX009 (ip), vehicle: water",100 % of control
OC12CCC[N+]1(Cc1ccccc1)CCC2 (stereo not drawn),T/C,[4],109 % of control
same,T/C,[5],109 % of control
same,T/C,[6],102 % of control
CCCCCCCCCCCC[N+]1(CCCCCCCCCCCC)CCCC(C)C1 (stereo not drawn),T/C,"dose: 0.09 mg/kg/injection, schedule: Q01DX009 (ip), vehicle: Klucel (hydroxypropylcellulose) (HPC)",95 % of control
same,T/C,"dose: 0.18 mg/kg/injection, schedule: Q01DX009 (ip), vehicle: Klucel (hydroxypropylcellulose) (HPC)",97 % of control
same,T/C,"dose: 0.37 mg/kg/injection, schedule: Q01DX009 (ip), vehicle: Klucel (hydroxypropylcellulose) (HPC)",93 % of control and 95 % of control
C[n+]1c(-c2cccc(OCCOCCOc3cccc(-c4c5cc(N)ccc5c5ccc(N)cc5[n+]4C)c3)c2)c2cc(N)ccc2c2ccc(N)cc21,T/C,"dose: 0.5 mg/kg/injection, schedule: Q01DX009 (ip), vehicle: water",110 % of control
COc1cc(C[C@H]2c3cc(OC)c(OC)cc3CCN2C)c(Oc2cc3c(cc2OC)-c2c(OC)c(OC)cc4c2[C@H](C3)N(C)CC4)cc1OC,T/C,"dose: 3.0 mg/kg/injection, schedule: Q01DX009 (ip), vehicle: saline with Tween-80",93 % of control
same,T/C,[14],92 % of control and 95 % of control
same,T/C,[15],88 % of control and 97 % of control and 107 % of control
same,T/C,"dose: 75.0 mg/kg/injection, schedule: Q01DX009 (ip), vehicle: saline with Tween-80",87 % of control
CCCNC(C)(C)C(SSS)c1cccs1 (stereo not drawn),T/C,"dose: 4.68 mg/kg/injection, schedule: Q04DX003 (ip), vehicle: saline",97 % of control
same,T/C,"dose: 6.25 mg/kg/injection, schedule: Q01DX009 (ip), vehicle: alcohol",111 % of control
same,T/C,"dose: 9.37 mg/kg/injection, schedule: Q04DX003 (ip), vehicle: saline",106 % of control
same,T/C,"dose: 12.5 mg/kg/injection, schedule: Q01DX009 (ip), vehicle: alcohol",100 % of control
same,T/C,"dose: 18.75 mg/kg/injection, schedule: Q04DX003 (ip), vehicle: saline",107 % of control
same,T/C,"dose: 25.0 mg/kg/injection, schedule: Q01DX009 (ip), vehicle: alcohol",95 % of control
same,T/C,"dose: 50.0 mg/kg/injection, schedule: Q01DX009 (ip), vehicle: alcohol",91 % of control
CC(C)(O)C(C)(O)c1ccc(Cl)cc1 (stereo not drawn),T/C,[15],88 % of control
same,T/C,[7],91 % of control
same,T/C,[8],103 % of control
same,T/C,[9],104 % of control
same,T/C,[10],92 % of control
Cc1ccc(NCC2(/N=C/c3ccccc3)OC(CO)C(O)C2O)cc1 (stereo not drawn),T/C,"dose: 6.25 mg/kg/injection, schedule: Q01DX009 (ip), vehicle: Klucel (hydroxypropylcellulose) (HPC)",98 % of control
same,T/C,[11],109 % of control
same,T/C,[12],91 % of control and 95 % of control
same,T/C,[13],90 % of control and 92 % of control
same,T/C,[1],93 % of control and 114 % of control
same,T/C,"dose: 177.0 mg/kg/injection, schedule: Q01DX009 (ip), vehicle: Klucel (hydroxypropylcellulose) (HPC)",123 % of control
same,T/C,[2],104 % of control
same,T/C,"dose: 266.0 mg/kg/injection, schedule: Q01DX009 (ip), vehicle: Klucel (hydroxypropylcellulose) (HPC)",123 % of control
same,T/C,[3],109 % of control
Cc1ccccc1SSc1ccccc1C,T/C,[15],105 % of control
same,T/C,[7],104 % of control
same,T/C,[8],98 % of control
same,T/C,[9],103 % of control
same,T/C,[10],98 % of control
C=C1C(=O)O[C@@H]2[C@H](O)[C@@H](C)[C@@H]3C=CC(=O)[C@@]3(C)[C@@H](OC(=O)/C(C)=C/C)[C@H]12,T/C,"dose: 1.5 mg/kg/injection, schedule: Q01DX009 (ip), vehicle: other",101 % of control
same,T/C,"dose: 1.5 mg/kg/injection, schedule: Q01DX009 (ip), vehicle: saline + alcohol",92 % of control
same,T/C,"dose: 3.0 mg/kg/injection, schedule: Q01DX009 (ip), vehicle: other",98 % of control
same,T/C,"dose: 3.0 mg/kg/injection, schedule: Q01DX009 (ip), vehicle: saline + alcohol",96 % of control
same,T/C,"dose: 6.0 mg/kg/injection, schedule: Q01DX009 (ip), vehicle: other",99 % of control
same,T/C,"dose: 6.0 mg/kg/injection, schedule: Q01DX009 (ip), vehicle: saline + alcohol",96 % of control
O=S(=O)(NN=C(c1ccccc1)c1ccccc1)c1ccccc1,T/C,[12],86 % of control
same,T/C,[13],91 % of control
O=[N+]([O-])O.O=[N+]([O-])O.[NH-]C1CCCCC1[NH-].[Pt+2] (stereo not drawn),T/C,"dose: 0.25 mg/kg/injection, schedule: Q01DX009 (ip), vehicle: dextrose",110 % of control
same,T/C,"dose: 0.5 mg/kg/injection, schedule: Q01DX009 (ip), vehicle: dextrose",120 % of control
same,T/C,"dose: 1.0 mg/kg/injection, schedule: Q01DX009 (ip), vehicle: dextrose",160 % of control
same,T/C,"dose: 2.0 mg/kg/injection, schedule: Q01DX009 (ip), vehicle: dextrose",183 % of control
COc1ccc2c(c1OC(C)=O)-c1cc(O)cc3c1C(C2)N(C(=O)CN(CCCl)CCCl)CC3 (stereo not drawn),T/C,"dose: 3.12 mg/kg/injection, schedule: Q01DX009 (ip), vehicle: saline with Tween-80",168 % of control
same,T/C,[14],187 % of control
same,T/C,"dose: 6.25 mg/kg/injection, schedule: Q04DX003 (ip), vehicle: DMSO",103 % of control
same,T/C,[15],197 % of control
same,T/C,"dose: 12.5 mg/kg/injection, schedule: Q04DX003 (ip), vehicle: DMSO",121 % of control
same,T/C,"dose: 25.0 mg/kg/injection, schedule: Q04DX003 (ip), vehicle: DMSO",110 % of control
same,T/C,"dose: 100.0 mg/kg/injection, schedule: Q04DX003 (ip), vehicle: DMSO",112 % of control
